Assay results from the supplement of paper PMC10307832.

How the values were obtained:
Test in all cases: relative viability (nuclei count vs DMSO), 5 days (fraction); higher = more cells survive
[1] = compound: O=C(CCCCCCNC(=O)c1cnc(N(c2ccccc2)c2ccccc2)nc1)NO [Ricolinostat] + Nc1nc2[nH]cc(CCc3ccc(C(=O)N[C@@H](CCC(=O)O)C(=O)O)cc3)c2c(=O)[nH]1 [Pemetrexed] (partner 0.2 µM)
How it was run: (§1)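 Nuclei were stained with Hoechst during a one-step fixation (final 0.05% Triton X-100, 1% formaldehyde, 1 ug/ml Hoechst) carried out 5 days after dosing, then counted on 4× images. The cells, lung cancer lines in 1536-well plates, had been dosed by pin tool the day after seeding with one drug alone or a fixed anchor-drug dose plus five library-drug doses (not always all listed) in √10 steps. Relative viability is the nuclei count in treated wells divided by that in vehicle wells, and each value is the median of duplicate plates.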

[2] = compound: O=C(CCCCCCNC(=O)c1cnc(N(c2ccccc2)c2ccccc2)nc1)NO [Ricolinostat] + CC1(C)CCC(c2ccc(Cl)cc2)=C(CN2CCN(c3ccc(C(=O)NS(=O)(=O)c4ccc(N[C@H](CCN5CCOCC5)CSc5ccccc5)c(S(=O)(=O)C(F)(F)F)c4)cc3)CC2)C1 [Navitoclax] (partner 0.5 µM)
How it was run: as §1

Ricolinostat + Dasatinib = compound: O=C(CCCCCCNC(=O)c1cnc(N(c2ccccc2)c2ccccc2)nc1)NO [Ricolinostat] + Cc1nc(Nc2ncc(C(=O)Nc3c(C)cccc3Cl)s2)cc(N2CCN(CCO)CC2)n1 [Dasatinib] (partner 0.075 µM)
How it was run: as §1

Ricolinostat + Foretinib = compound: O=C(CCCCCCNC(=O)c1cnc(N(c2ccccc2)c2ccccc2)nc1)NO [Ricolinostat] + COc1cc2c(Oc3ccc(NC(=O)C4(C(=O)Nc5ccc(F)cc5)CC4)cc3F)ccnc2cc1OCCCN1CCOCC1 [Foretinib] (partner 0.25 µM)
How it was run: as §1

Row | Cell Line | relative viability ([1]; first compound 0.08 µM) | relative viability ([1]; first compound 0.253 µM) | relative viability ([1]; first compound 0.8 µM) | relative viability ([1]; first compound 2.53 µM) | relative viability ([2]; first compound 0.08 µM) | relative viability ([2]; first compound 0.253 µM) | relative viability ([2]; first compound 0.8 µM) | relative viability ([2]; first compound 2.53 µM) | relative viability (Ricolinostat + Dasatinib; first compound 0.08 µM) | relative viability (Ricolinostat + Dasatinib; first compound 0.253 µM) | relative viability (Ricolinostat + Dasatinib; first compound 0.8 µM) | relative viability (Ricolinostat + Dasatinib; first compound 2.53 µM) | relative viability (Ricolinostat + Foretinib; first compound 0.08 µM) | relative viability (Ricolinostat + Foretinib; first compound 0.253 µM) | relative viability (Ricolinostat + Foretinib; first compound 0.8 µM) | relative viability (Ricolinostat + Foretinib; first compound 2.53 µM)
1 | LCLC-97TM1 | 0.152 | 0.157 | 0.137 | 0.157 | 0.41 | 0.431 | 0.485 | 0.357 | 0.727 | 0.853 | 0.878 | 0.34 | 0.953 | 0.89 | 1 | 0.933
2 | NCI-H1734 | 0.446 | 0.414 | 0.448 | 0.473 | 0.645 | 0.826 | 0.924 | 0.78 | 0.463 | 0.516 | 0.51 | 0.571 | 0.728 | 0.85 | 0.915 | 0.926
3 | NCI-H661 | 0.832 | 0.879 | 0.9 | 0.776 | – | – | – | – | 0.795 | 0.88 | 0.889 | 0.731 | 0.849 | 0.983 | 1 | 0.81
4 | SK-LU-1 | 1.06 | 0.97 | 0.949 | 0.864 | 0.863 | 0.816 | 0.642 | 0.502 | 0.16 | 0.153 | 0.18 | 0.175 | 0.739 | 0.908 | 0.772 | 0.722
5 | LC-2-ad | 0.32 | 0.272 | 0.28 | 0.269 | 0.535 | 0.485 | 0.506 | 0.334 | 0.41 | 0.566 | 0.482 | 0.455 | 0.747 | 0.874 | 0.886 | 0.761
6 | NCI-H1355 | 0.916 | 1.07 | 0.95 | 1.01 | – | 0.916 | 0.887 | 0.747 | 0.588 | 0.69 | 0.645 | 0.62 | 0.953 | 0.978 | 0.976 | 0.873
7 | NCI-H1793 | 0.603 | 0.76 | 0.815 | 0.811 | – | 0.547 | 0.499 | 0.853 | – | 0.397 | 0.348 | 0.322 | – | 0.737 | 0.741 | 0.876
8 | H3255 | 0.494 | 0.544 | 0.553 | 0.557 | 0.537 | 0.495 | 0.483 | 0.483 | 0.347 | 0.308 | 0.318 | 0.308 | 0.626 | 0.962 | 0.685 | 0.589
9 | NCI-H2342 | 0.734 | 0.785 | 0.719 | 0.637 | – | – | – | – | 0.32 | 0.311 | 0.365 | 0.293 | 0.88 | 0.975 | 1.19 | 1.07
10 | NCI-H838 | 0.236 | 0.273 | 0.259 | 0.208 | 0.97 | 1.13 | 1.19 | 0.967 | – | 0.318 | 0.287 | 0.452 | 0.9 | 1.07 | 1.06 | 0.941
11 | NCI-H727 | – | – | – | – | 0.356 | 0.55 | 0.397 | 0.405 | 0.352 | 0.479 | 0.47 | 0.452 | 0.746 | 0.741 | 0.948 | 0.884
12 | UMC-11 | 0.751 | 0.767 | 0.728 | 0.374 | 0.31 | 0.343 | 0.267 | 0.158 | 0.427 | 0.39 | 0.399 | 0.242 | 1.13 | 1.07 | 0.864 | 0.504
13 | CAL-12T | 0.884 | 1.15 | 1.28 | 1.37 | 1.04 | 1.01 | 1.01 | 1.11 | 0.422 | 0.417 | 0.48 | 0.664 | 1.04 | 1.17 | 1.12 | 1.35
14 | NCI-H1755 | 0.405 | 0.386 | 0.343 | 0.418 | 0.864 | – | 0.981 | 0.912 | 0.368 | 0.386 | 0.472 | 0.449 | 0.853 | 0.925 | 0.903 | 0.91
15 | NCI-H1651 | 0.463 | 0.571 | 0.55 | 0.552 | 0.913 | 0.993 | 1.02 | 0.854 | 0.414 | 0.544 | 0.428 | 0.4 | 0.852 | 0.812 | 0.746 | 0.776
16 | NCI-H2170 | 0.247 | 0.242 | 0.281 | 0.244 | 0.607 | 0.495 | 0.633 | 0.662 | 0.537 | 0.733 | 0.626 | 0.666 | 0.915 | 0.973 | 0.983 | 1.01
17 | NCI-H1915 | 0.399 | 0.416 | 0.458 | 0.397 | 0.797 | 0.746 | 0.778 | 0.712 | 0.277 | 0.29 | 0.275 | 0.231 | 1.07 | 1.03 | 1.07 | 1.03
